These are literature values, as cited in patent publication US11331275B2 (Humanwell PuraCap Pharmaceuticals (Wuhan) Co., Ltd, priority 2017, dated 2022).

For `C=C(c1ccc(C(=O)O)cc1)c1cc2c(cc1C)C(C)(C)CCC2(C)C` [bexarotene, 4-[1-(5,6,7,8-tetrahydro-3,5,5,8,8-pentamethyl-2-naphthyl)ethenyl] benzoic acid], under “acetonitrile”, the solubility in acetonitrile entry is reported as “soluble”. Also, the solubility in dimethylsulfoxide entry (dimethylsulfoxide) is given as “soluble”. Further, the solubility in methanol entry (methanol) was “slightly soluble”. The solubility in water result (water) was “almost insoluble”.
